According to US5079257A, “Indoloquinone compounds” (priority 1986, dated 1992):
In brackets after ≈: the same amount, converted by molar mass. Where two headings read alike, the source gives them in different places.

Key:
[1] = test system: R-1 cells (Rhabdomyosarcoma Cells); experiment: R-1 activity (bioliquid assay), cytotoxicity; format: cell-based; settings: for IC50: Rhabdomyosarcoma cell, read-out: ID-50 R-1
Text: The indoloquinones II (formula II) have been tested in respect of their cytotoxic activity against L1210 cells and R-1 cells (Rhabdomyosarcoma Cells) in a bioliquid assay at the department of oncology of the Free University of Amsterdam (Table I). […] (Table II). Eight indoloquinones (E.O. 1, E.O. 2, E.O. 4, E.O. 4A, E.O. 8, E.O. 9, E.O. 33 and E.O. 35) have been tested in a panel of five human tumour lines (TNO Rijswijk; Table III).
For the determination of the R-1 activity, Rhabdomyosarcoma cells were brought into Falcon multiwells (growth area: 9.6 cm^2) (~10^6 cells per dish) containing 3 ml of Dulbecco's medium supplemented with 10% Foeto Calf Serum (FCS). […] Thereupon the drug solution was removed and the cells were covered with fresh medium. After 48 hours the cells were trypsinized and counted on a Sysmex microcell counter (CC110).
(§1) The in vitro L1210 and R-1 activities of the indoloquinones (formula III), were also determined in the bioliquid assays as described above.

L1210 cells = experiment: L1210 activity (bioliquid assay), cytotoxicity; format: cell-based; settings: for IC50: Mus musculus, read-out: ID-50 L1210; for ID-50 L1210: 2880 min
Text: The indoloquinones II (formula II) have been tested in respect of their cytotoxic activity against L1210 cells and R-1 cells (Rhabdomyosarcoma Cells) in a bioliquid assay at the department of oncology of the Free University of Amsterdam (Table I). In addition to this seven compounds (E.O. 1, E.O. 2, E.O. 4, E.O. 7, E.O. 9, E.O. 16 and E.O. 17) have been tested on L1210 activity in a clonogenic assay at TNO, Rijswijk. Further, the lowest active doses of the compounds E.O. 1, E.O. 2, E.O. 4 and E.O. 9 have been determined at TNO Rijswijk, according to the method described by Lamberts et al. [Oncology, 40, 301 (1983)]. (Table II). Eight indoloquinones (E.O. 1, E.O. 2, E.O. 4, E.O. 4A, E.O. 8, E.O. 9, E.O. 33 and E.O. 35) have been tested in a panel of five human tumour lines (TNO Rijswijk; Table III). From the latter group three indoloquinones (E.O. 1, E.O. 4 and E.O. 9) have been selected for a cytotoxicity study, involving five slowly growing human tumour lines (University of Freiburg; Table IV).
For this purpose, L1210 cells were grown, as suspension, in Falcon multi-wells (growth area: 9.6 cm^2) using RPMI supplemented with 15% FCS and 2-mercapto-ethanol (60 μmol) as medium. In this medium, the cells were continuously incubated with the compound to be tested at 37° C. in an atmosphere of 5% CO2 in humidified air for 48 hours. Thereupon they were counted on a Sysmex microcell counter (CC110).
as §1

[2] = Table IA, para-indoloquinone diesters
[3] = L1210, 48 h, Table IA, para-indoloquinone diesters
[4] = L1210, Table I, bioliquid assay, 48 hours

Row | SMILES | IC50 ([1]; Table I, bioliquid assay) [µg/mL] | IC50 (L1210 cells; [4]) [µg/mL] | other results
1 | CCNC1=CC(=O)c2c(c(C(=O)OC)c(/C=C/C(=O)OC)n2C)C1=O [E.O. 57, Methyl 5-ethylamino-3-methoxycarbonyl-1-methyl-2-[1H-indole-4,7-dione]acrylate] |  |  | IC50 [1, 2]: 3.2 µg/mL (≈ 9.24 µM); IC50 (L1210 cells; [3]): 1.4 µg/mL (≈ 4.04 µM)
2 | CCNC1=CC(=O)c2c(c(CO)c(/C=C/CO)n2C)C1=O [E.O. 56, 5-Ethylamino-3-hydroxymethyl-1-methyl-2-[1H-indole-4,7-dione]prop-β-en-α-ol] | > 10 | 5.1 (≈ 17.6 µM) | IC50 ([1]; Table VI): > 10 µg/mL
3 | COCc1c2c(n(C)c1/C=C/COC(=O)NCCCl)C(=O)C=C(OC)C2=O [E.O. 10, 5-Methoxy-3-methoxymethyl-1-methyl-2-[1H-indole-4,7-dione]prop-β-en-α-yl N-[2-chloro-1-ethyl]carbamate] | > 10 | > 10 | ID-50 R-1 ([1]; Table VII): > 10 µg/mL; ID-50 L1210 (L1210 cells; Table VII): > 10 µg/mL
4 | COC1=CC(=O)c2c(c(COC(=O)NCCCl)c(/C=C/COC(=O)NCCCl)n2C)C1=O [E.O. 13, 3-(N-chloroethylcarbamoyloxymethyl)-5-methoxy-1-methyl-2-[1H-indole-4,74,7-dione]prop-β-en-α-yl N-chloroethyl carbamate] | 1.1 (≈ 2.25 µM) | 10 (≈ 20.5 µM) | 
5 | CC(=O)OC/C=C/c1c(COC(C)=O)c2c(n1C)C(=O)C=C(N1CCOCC1)C2=O [E.O. 60, 3-Acetoxymethyl-1-methyl-5-morpholino-2-[1H-indole-4,7-dione]prop-β-en-α-yl acetate] | 3.3 | > 10 | ID-50 L1210 (L1210 cells; Table VI): > 10 µg/mL
6 | Cn1c(/C=C/CO)c(CO)c2c1C(=O)C=C(Nc1ccccc1)C2=O [E.O. 15, 3-Hydroxymethyl-5-phenylamino-1-methyl-2-[1H-indole-4,7-dione]prop-β-en-α-ol] |  | 0.7 (≈ 2.07 µM) | 
7 | COC(=O)/C=C/c1c(C(=O)OC)c2c(n1C)C(=O)C(C)=C(OC)C2=O [E.O. 32, Methyl 1,6-dimethyl-5-methoxy-3-methoxycarbonyl-2-[1H-indole-4,7-dione]acrylate] |  |  | IC50 [1, 2]: > 10 µg/mL; IC50 (L1210 cells; [3]): 3.5 µg/mL (≈ 10.1 µM)
8 | CC(=O)OC/C=C/c1c(COC(C)=O)c2c(n1C)C(=O)C=C(NCCc1ccccn1)C2=O [E.O. 52, 3-Acetoxymethyl-1-methyl-5-[2-pyridylethyl-1-amino]-2-[1H-indole-4,7-dione]prop-β-en-α-yl acetate] | 3.3 | > 10 | R-1 activity [1]: rather high activities; ID-50 L1210 (L1210 cells; Table VI): > 10 µg/mL
9 | CCCCNC(=O)OC/C=C/c1c(COC(=O)NCCCC)c2c(n1C)C(=O)C=C(OC)C2=O [E.O. 37, 3-[N-butylcarbamoyloxymethyl]-5-methoxy-1-methyl-2-[1H-indole-4,7-dione]prop-β-en-α-yl N-butylcarbamate] | 6.5 (≈ 13.7 µM) | > 10 | ID-50 L1210 (L1210 cells; Table VII): > 10 µg/mL
10 | COC1=CC(=O)c2c(c(COC(=O)c3ccccc3)c(/C=C/COC(=O)c3ccccc3)n2C)C1=O [E.O. 36, 3-Benzoxymethyl-5-methoxy-1-methyl-2-[1H-indole-4,7-dione]prop-β-en-α-yl benzoate] | 2.6 (≈ 5.36 µM) | 0.7 (≈ 1.44 µM) | 
11 | COC1=CC(=O)c2c(c(CO)c(/C=C/COC(C)=O)n2C)C1=O [E.O. 1A, 3-Hydroxymethyl-5-methoxy-1-methyl-2-[1H-indole-4,7-dione]prop-β-en-α-yl acetate] | 3.2 | 2.8 | 
12 | COC1=CC(=O)c2c(c(C)c(/C=C/COC(C)=O)n2C)C1=O [E.O. 41, 5-Methoxy-1,3-dimethyl-2-[1H-indole-4,7-dione]prop-β-en-α-yl acetate] | > 10 | > 10 | IC50 ([1]; Table VII): > 10 µg/mL; ID-50 L1210 (L1210 cells; Table VII): > 10 µg/mL
13 | COC1=C(C)C(=O)c2c(c(CO)c(/C=C/CO)n2C)C1=O [E.O. 18, 1,6-Dimethyl-5-hydroxymethyl-5-methoxy-2-[1H-indole-4,7-dione]prop-β-en-α-ol] | 2.2 (≈ 7.55 µM) | 2.4 (≈ 8.24 µM) | 
